Measurements reported in US20090011442A1, “TB diagnostics based on mycobacterium tuberculosis excretory secretory antigens and their specific immunoglobulins” (priority 2007, published 2009).

Tested on: M. tb H37Ra bacilli
Type: cell-based, Mycobacterium tuberculosis H37Ra

SMILES | MIC (mg/l)/Resistance Ratio | Resistance ratio
CC[C@@H](CO)NCCN[C@@H](CC)CO [EMB, ethambutol] | >8 mg/L | 
NNC(=O)c1ccncc1 [INH, isoniazid] | >1 mg/L | 
NC(=O)c1cnccn1 [PZA] | >100 mg/L | 
CO[C@H]1/C=C/O[C@@]2(C)Oc3c(C)c(O)c4c(O)c(c(/C=N/N5CCN(C)CC5)c(O)c4c3C2=O)NC(=O)/C(C)=C\C=C\[C@H](C)[C@H](O)[C@@H](C)[C@@H](O)[C@@H](C)[C@H](OC(C)=O)[C@@H]1C [RMP, rifampicin] | >64 mg/L | 
[H]/N=C(/N)N[C@H]1[C@H](O)[C@@H](O)[C@H](O[C@@H]2O[C@@H](C)[C@](O)(C=O)[C@H]2O[C@@H]2O[C@@H](CO)[C@H](O)[C@@H](O)[C@@H]2NC)[C@@H](N/C(N)=N\[H])[C@@H]1O [SM, streptomycin] |  | ratio > 8
